Assay [1] deals with Carraghenin-Ödem. The assay can be described thus: Carrageenan-induced oedema test in rats (method of Winter et al.). Format: in vivo. The note with it: Ratten. An excerpt:
Die entzündungshemmende Wirkung wurde an Hand des Versuches mit dem von Carraghenin hervorgerufenen beziehungsweise induzierten Ödem (Carraghenin-Ödem) an Ratten, welcher im wesentlichen nach der Verfahrensweise von C. A. Winter und Mitarbeitern, J. Pharm. Expt. Ther. […] durchgeführt wurde, bewertet. Die Ergebnisse dieser Versuche sind in der folgenden Tabelle I zusammengestellt.

Assay [2] concerns Granulome. The assay can be described thus: Cotton pellet granuloma test (method of Meier et al.). The assay is classed as in vivo. An excerpt:
Ein weiterer Nachweis der starken entzündungshemmenden Wirkung der erfindungsgemäßen Verbindungen erfolgte mit Hilfe des Granulomwattekügelchenversuches, welcher im wesentlichen wie von R. Meier und Mitarbeitern, Experientia, 6 [1950], 1469 beschrieben durchgeführt wurde. Bei diesem Versuch wurden Granuloma durch Einsetzen eines Wattekügelchens in den intraskapularen Bereich des Versuchtieres gebildet. Die Versuchsergebnisse sind in der folgenden Tabelle 11 zusammengestellt.

Assay [3] deals with durch das Reizmittel hervorgerufene Unterleibsschmerzkrümmungen. The assay can be described thus: Writhing test in mice (method of Wilkin et al.). The assay is classed as in vivo, Mäusen. The note with it: Mäuse; for ED50: Mus musculus, po, read-out: ED50 (Dosen, welche eine 50%ige Verminderung der Zusammenziehung herbeizuführen vermögen). As for the experimental part:
Die schmerzlindernde Wirksamkeit wurde mit Hilfe des »Schmerzkrümmungsversuches« (»writhing test«) an Mäusen im wesentlichen nach der von Wilkin und Mitarbeitern in J. Pharm. Expt. Ther., 133 [1961 ], 409 beschriebenen Versuchsverfahrensweise bewertet. Repräsentative Versuche zeigten, daß die erfindungsgemäßen Verbindungen bei ihrer Verarbreichung in peroralen Dosen von etwa 30 bis 100 mg/kg gegenüber den Blindversuchen eine 50%ige Hemmung der durch das Reizmittel hervorgerufenen Unterleibsschmerzkrümmungen herbeiführten. Bei diesem Versuch zeigte sich, daß die schmerzlindernde Wirkung der erfindungsgemäßen Verbindung N-Acetyl-S-[D-2-(6'-methoxynaphth-2'-yl)-propionyl]-L-cystein (Verbindung der Beispiele 6 und 7) selbst 4 Stunden nach ihrer Verabreichung beträchtlich war.
A general note: In writhing tests, fewer writhes than in controls are read as antinociception.

Read-outs that look alike come from different tables or passages of the source.

As a reminder, the ED50 is the dose that gives a 50% effect, or the effect in half of the subjects.

For the molecule `CCC1Cc2cc(CC(=O)N[C@@H](CS)C(=O)O)ccc2O1` (stereo partly drawn) [Beispiel 3, N-[2-(2'-Äthyl-2',3'-dihydrobenzofuran-5'-yl)-acetyl]-L-cystein], the “Hemmung des Carraghenin-Ödemes in %, bezogen auf die Blindversuche” value (shortened to “Hemmung des Carraghenin-Ödemes in %”) in assay [1] (Perorale Dosis 50 mg/kg) is listed as −48%. In assay [2] (Perorale Dosis 40 mg/kg), the “Hemmung des Granulomes in %, bezogen auf die Blindversuche” value (shortened to “Hemmung des Granulomes in %”) was −30%.

For the molecule `COc1ccc2cc([C@H](C)C(=O)N[C@@H](CS)C(=O)O)ccc2c1` [Beispiel 4, N-[D-2-(6'-Methoxynaphth-2'-yl)-propionyl]-L-cystein], the “Hemmung des Granulomes in %” value in assay [2] (Perorale Dosis 40 mg/kg) is −24%; in assay [2] (Perorale Dosis 80 mg/kg), −35%.

For `COC(=O)[C@H](CS)NC(=O)[C@@H](C)c1ccc2cc(OC)ccc2c1` [Beispiel 2, N-[D-2-(6'-Methoxynaphth-2'-yl)-propionyl]-L-cysteinmethylester], the “Hemmung des Carraghenin-Ödemes in %” value in assay [1] (Perorale Dosis 50 mg/kg) was −57%.

`COc1ccc2cc([C@H](C)C(=O)SC[C@H](NC(C)=O)C(=O)O)ccc2c1` [Beispiel 6 beziehungs-weise 7, N-Acetyl-S-[D-2-(6'-methoxynaphth-2'-yl)-propionyl]-L-cystein]: the “Hemmung des Carraghenin-Ödemes in %” value was −42% in assay [1] (Perorale Dosis 3 mg/kg), −42% in assay [1] (Perorale Dosis 6 mg/kg), −45% in assay [1] (Perorale Dosis 12 mg/kg) and −58% in assay [1] (Perorale Dosis 24 mg/kg). For the same molecule, the “Hemmung des Granulomes in %” value is −28% in assay [2] (Perorale Dosis 40 mg/kg) and −49% in assay [2] (Perorale Dosis 80 mg/kg). Further, in assay [3] (4 Stunden nach Verabreichung), the “schmerzlindernde Wirkung” value is reported as “beträchtlich”. For the same molecule, the ED50 in assay [3] (0.5 h, nach 30 Minuten) was found to be 25 mg/kg; in assay [3] (4 h, nach 4 Stunden), 10 mg/kg.

Values taken from patent publication EP0035641B1, “Cystein derivatives, process for their preparation and medicines containing them” (ALFA FARMACEUTICI S.p.A., priority 1980, dated 1981).
